The series has as its system CCRIS mutagenicity, Ames/micronucleus/aberration tests. The series can be described thus: CCRIS mutagenicity studies.
[1] abbreviates: Test System: AMES SALMONELLA TYPHIMURIUM, Strain/Indicator: TA100, Metabolic Activation: RAT, LIVER, S-9, AROCLOR 1254, Method: STANDARD PLATE.
[2] abbreviates: Test System: AMES SALMONELLA TYPHIMURIUM, Strain/Indicator: TA98, Metabolic Activation: NONE, Method: PREINCUBATION
Where [3] appears, read: Test System: AMES SALMONELLA TYPHIMURIUM, Strain/Indicator: TA100, Metabolic Activation: NONE, Method: PREINCUBATION

Activity calls are given as the source filed them. How the calls were made is not given here.

For the molecule `ClNc1nc(NCl)nc(NCl)n1`, the mutagenic call is, setting by setting: (Test System: AMES SALMONELLA TYPHIMURIUM, Strain/Indicator: TA98, Metabolic Activation: HAMSTER, LIVER, S-9, AROCLOR 1254, Method: STANDARD PLATE) “inactive; negative”; (Test System: AMES SALMONELLA TYPHIMURIUM, Strain/Indicator: TA98, Metabolic Activation: NONE, Method: STANDARD PLATE) “inactive; negative”; (Test System: AMES SALMONELLA TYPHIMURIUM, Strain/Indicator: TA98, Metabolic Activation: RAT, LIVER, S-9, AROCLOR 1254, Method: STANDARD PLATE) “inactive; negative”; (Test System: AMES SALMONELLA TYPHIMURIUM, Strain/Indicator: TA100, Metabolic Activation: HAMSTER, LIVER, S-9, AROCLOR 1254, Method: STANDARD PLATE) “inactive; negative”; (Test System: AMES SALMONELLA TYPHIMURIUM, Strain/Indicator: TA100, Metabolic Activation: NONE, Method: STANDARD PLATE) “inactive; negative”; under setting [1], “inactive; negative”. Besides, the mutagenic call runs as follows: (Test System: AMES SALMONELLA TYPHIMURIUM, Strain/Indicator: TA1535, Metabolic Activation: HAMSTER, LIVER, S-9, AROCLOR 1254, Method: STANDARD PLATE) “inactive; negative”; (Test System: AMES SALMONELLA TYPHIMURIUM, Strain/Indicator: TA1535, Metabolic Activation: NONE, Method: STANDARD PLATE) “inactive; negative”; (Test System: AMES SALMONELLA TYPHIMURIUM, Strain/Indicator: TA1535, Metabolic Activation: RAT, LIVER, S-9, AROCLOR 1254, Method: STANDARD PLATE) “inactive; negative”; (Test System: AMES SALMONELLA TYPHIMURIUM, Strain/Indicator: TA1537, Metabolic Activation: HAMSTER, LIVER, S-9, AROCLOR 1254, Method: STANDARD PLATE) “inactive; negative”; (Test System: AMES SALMONELLA TYPHIMURIUM, Strain/Indicator: TA1537, Metabolic Activation: NONE, Method: STANDARD PLATE) “inactive; negative”; (Test System: AMES SALMONELLA TYPHIMURIUM, Strain/Indicator: TA1537, Metabolic Activation: RAT, LIVER, S-9, AROCLOR 1254, Method: STANDARD PLATE) “inactive; negative”. The mutagenic call was “inactive; negative” (Test System: AMES SALMONELLA TYPHIMURIUM, Strain/Indicator: TA1538, Metabolic Activation: HAMSTER, LIVER, S-9, AROCLOR 1254, Method: STANDARD PLATE); “inactive; negative” (Test System: AMES SALMONELLA TYPHIMURIUM, Strain/Indicator: TA1538, Metabolic Activation: NONE, Method: STANDARD PLATE); “inactive; negative” (Test System: AMES SALMONELLA TYPHIMURIUM, Strain/Indicator: TA1538, Metabolic Activation: RAT, LIVER, S-9, AROCLOR 1254, Method: STANDARD PLATE); “inactive; negative. reevaluation of results: negative” (Test System: MOUSE LYMPHOMA, Strain/Indicator: L5178Y (TK+/TK-), Metabolic Activation: NONE, Method: SUSPENSION/PLATE); “active; positive” (Test System: Mouse lymphoma, Strain/Indicator: L5178Y (tk+/tk-), Metabolic Activation: Rat, Liver, S-9, Aroclor 1254, Method: Suspension/plate).

In the case of `CCN(CC(O)c1ccc([N+]#N)c([O-])c1)N=O` (configuration not stated), the mutagenic call is “active; positive” under setting [2]; “active; positive” (Test System: AMES SALMONELLA TYPHIMURIUM, Strain/Indicator: TA98, Metabolic Activation: RAT LIVER S-9, PCB, Method: PREINCUBATION); “active; positive” under setting [3]; “active; positive” (Test System: AMES SALMONELLA TYPHIMURIUM, Strain/Indicator: TA100, Metabolic Activation: RAT LIVER S-9, PCB, Method: PREINCUBATION).

In the case of `CCCCCCCC(=O)O`, the mutagenic call (Test System: AMES SALMONELLA TYPHIMURIUM, Strain/Indicator: TA97, Metabolic Activation: HAMSTER, LIVER, S-9, AROCLOR 1254 (10%), Method: PREINCUBATION) was “inactive; negative”; the mutagenic call (Test System: AMES SALMONELLA TYPHIMURIUM, Strain/Indicator: TA97, Metabolic Activation: HAMSTER, LIVER, S-9, AROCLOR 1254 (30%), Method: PREINCUBATION) was “inactive; negative”; the mutagenic call (Test System: AMES SALMONELLA TYPHIMURIUM, Strain/Indicator: TA97, Metabolic Activation: NONE, Method: PREINCUBATION) is “inactive; negative”; the mutagenic call (Test System: AMES SALMONELLA TYPHIMURIUM, Strain/Indicator: TA97, Metabolic Activation: RAT, LIVER, S-9, AROCLOR 1254 (10%), Method: PREINCUBATION) was “inactive; negative”; the mutagenic call (Test System: AMES SALMONELLA TYPHIMURIUM, Strain/Indicator: TA97, Metabolic Activation: RAT, LIVER, S-9, AROCLOR 1254 (30%), Method: PREINCUBATION) is “inactive; negative”; the mutagenic call (Test System: AMES SALMONELLA TYPHIMURIUM, Strain/Indicator: TA98, Metabolic Activation: HAMSTER, LIVER, S-9, AROCLOR 1254 (10%), Method: PREINCUBATION) was “inactive; negative”. The mutagenic call is “inactive; negative” (Test System: AMES SALMONELLA TYPHIMURIUM, Strain/Indicator: TA98, Metabolic Activation: HAMSTER, LIVER, S-9, AROCLOR 1254 (30%), Method: PREINCUBATION); “inactive; negative” under setting [2]; “inactive; negative” (Test System: AMES SALMONELLA TYPHIMURIUM, Strain/Indicator: TA98, Metabolic Activation: RAT, LIVER, S-9, AROCLOR 1254 (10%), Method: PREINCUBATION); “inactive; negative” (Test System: AMES SALMONELLA TYPHIMURIUM, Strain/Indicator: TA98, Metabolic Activation: RAT, LIVER, S-9, AROCLOR 1254 (30%), Method: PREINCUBATION); “inactive; negative” (Test System: AMES SALMONELLA TYPHIMURIUM, Strain/Indicator: TA100, Metabolic Activation: HAMSTER, LIVER, S-9, AROCLOR 1254 (10%), Method: PREINCUBATION); “inactive; negative” (Test System: AMES SALMONELLA TYPHIMURIUM, Strain/Indicator: TA100, Metabolic Activation: HAMSTER, LIVER, S-9, AROCLOR 1254 (30%), Method: PREINCUBATION). The mutagenic call reads like this: under setting [3], “inactive; negative”; (Test System: AMES SALMONELLA TYPHIMURIUM, Strain/Indicator: TA100, Metabolic Activation: RAT, LIVER, S-9, AROCLOR 1254 (10%), Method: PREINCUBATION) “inactive; negative”; (Test System: AMES SALMONELLA TYPHIMURIUM, Strain/Indicator: TA100, Metabolic Activation: RAT, LIVER, S-9, AROCLOR 1254 (30%), Method: PREINCUBATION) “inactive; negative”; (Test System: AMES SALMONELLA TYPHIMURIUM, Strain/Indicator: TA1535, Metabolic Activation: HAMSTER, LIVER, S-9, AROCLOR 1254 (10%), Method: PREINCUBATION) “inactive; negative”; (Test System: AMES SALMONELLA TYPHIMURIUM, Strain/Indicator: TA1535, Metabolic Activation: HAMSTER, LIVER, S-9, AROCLOR 1254 (30%), Method: PREINCUBATION) “inactive; negative”; (Test System: AMES SALMONELLA TYPHIMURIUM, Strain/Indicator: TA1535, Metabolic Activation: NONE, Method: PREINCUBATION) “inactive; negative”. Further, the mutagenic call (Test System: AMES SALMONELLA TYPHIMURIUM, Strain/Indicator: TA1535, Metabolic Activation: RAT, LIVER, S-9, AROCLOR 1254 (10%), Method: PREINCUBATION) was “inactive; negative”; the mutagenic call (Test System: AMES SALMONELLA TYPHIMURIUM, Strain/Indicator: TA1535, Metabolic Activation: RAT, LIVER, S-9, AROCLOR 1254 (30%), Method: PREINCUBATION) is “inactive; negative”; the mutagenic call (Test System: AMES SALMONELLA TYPHIMURIUM, Strain/Indicator: TA1537, Metabolic Activation: HAMSTER, LIVER, S-9, AROCLOR 1254 (10%), Method: PREINCUBATION) was “inactive; negative”; the mutagenic call (Test System: AMES SALMONELLA TYPHIMURIUM, Strain/Indicator: TA1537, Metabolic Activation: HAMSTER, LIVER, S-9, AROCLOR 1254 (30%), Method: PREINCUBATION) was “inactive; negative”; the mutagenic call (Test System: AMES SALMONELLA TYPHIMURIUM, Strain/Indicator: TA1537, Metabolic Activation: NONE, Method: PREINCUBATION) is “inactive; negative”; the mutagenic call (Test System: AMES SALMONELLA TYPHIMURIUM, Strain/Indicator: TA1537, Metabolic Activation: RAT, LIVER, S-9, AROCLOR 1254 (10%), Method: PREINCUBATION) was “inactive; negative”. Moreover, the mutagenic call (Test System: AMES SALMONELLA TYPHIMURIUM, Strain/Indicator: TA1537, Metabolic Activation: RAT, LIVER, S-9, AROCLOR 1254 (30%), Method: PREINCUBATION) was “inactive; negative”.

`O=C1c2ccccc2-c2c1ccc1ccc3ccccc3c21`: the mutagenic call under setting [1] is “inactive; negative”.

(Values after PubChem BioAssay AID1259407 (Chemical Carcinogenesis Research Information System (CCRIS), 2018).)
